IC50 data for 38 compounds are collected here from US20060264419A1 (priority 2003, published 2006).

Chain of 5-HT2A receptors (P14842 whole entry): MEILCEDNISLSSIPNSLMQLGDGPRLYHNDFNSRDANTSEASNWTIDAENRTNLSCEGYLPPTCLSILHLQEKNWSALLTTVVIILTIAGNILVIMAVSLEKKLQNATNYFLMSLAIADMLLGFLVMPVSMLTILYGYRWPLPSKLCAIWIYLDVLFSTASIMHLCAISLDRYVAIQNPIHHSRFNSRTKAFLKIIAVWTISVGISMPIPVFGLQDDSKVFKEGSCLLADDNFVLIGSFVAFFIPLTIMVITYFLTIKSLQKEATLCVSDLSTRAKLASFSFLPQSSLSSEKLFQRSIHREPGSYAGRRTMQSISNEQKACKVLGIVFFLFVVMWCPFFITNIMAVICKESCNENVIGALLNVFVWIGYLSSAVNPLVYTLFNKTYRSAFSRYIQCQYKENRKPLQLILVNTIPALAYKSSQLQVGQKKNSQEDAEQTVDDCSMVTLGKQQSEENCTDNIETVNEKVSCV

In one experiment the target is 5-HT2A receptors (Rattus norvegicus, UniProt P14842). The experiment is described as follows: in-vitro affinity to 5-HT2A receptors, displacement of [3H]ketanserine (Example A1). The class given is binding. To be noted: read-out: HT2A IC50. The text has this:
The 5-HT2A receptors are exposed both to [^3H]ketanserine (a substance which is known for its affinity to the receptor) and also to the test compound. The decrease in the affinity of [^3H]ketanserine to the receptor is an indication of the affinity of the test substance to the 5-HT2A receptor.
In the case of `CN1CCN(Cc2cnn(-c3ccc(-c4cccc(F)c4F)cc3)c2-c2ccccc2F)CC1` [Example 967, 1-[1-(2′,3′-Difluorobiphenyl-4-yl)-5-(2-fluoro-phenyl)-1H-pyrazol-4-ylmethyl]-4-methyl-piperazine], the 50% inhibitory concentration (IC50) turned out to be 73 nM.

Consider `c1ccc(-c2ccc(-n3ncc(CN4CCNCC4)c3-c3ccccn3)cc2)cc1` [Example 1009, 1-(1-Biphenyl-4-yl-5-pyridin-2-yl-1H-pyrazol-4-ylmethyl)piperazine], for which the IC50 was found to be 200 nM.

For `Cc1ccc(-c2c(CN3CCN(C)CC3)cnn2-c2ccc(-c3ccc(F)cc3)cc2)cc1` [Example 994, 1-[1-(4′-Fluorobiphenyl-4-yl)-5-p-tolyl-1H-pyrazol-4-ylmethyl]-4-methylpiperazine], the IC50 is 140 nM.

Turning to `COC(=O)CCNCc1cnn(-c2ccc(-c3ccccc3)cc2)c1-c1ccccc1F` [Example 1014, Methyl 3-{[1-biphenyl-4-yl-5-(2-fluoro-phenyl)-1H-pyrazol-4-ylmethyl]amino}propionate], the IC50 worked out at 210 nM.

For the compound `CN1CCN(Cc2cnn(-c3ccc(-c4ccc(F)cc4)cc3)c2-c2cc(Cl)cc(Cl)c2)CC1` [Example 1052, 1-[5-(3,5-Dichlorophenyl)-1-(4′-fluoro-biphenyl-4-yl)-1H-pyrazol-4-ylmethyl]-4-methyl-piperazine], the IC50 amounted to 400 nM.

`Cc1ccccc1-c1ccc(-n2ncc(CN3CCN(C)CC3)c2-c2ccccc2F)cc1` [Example 1020, 1-[5-(2-Fluorophenyl)-1-(2′-methyl-biphenyl-4-yl)-1H-pyrazol-4-ylmethyl]-4-methylpiperazine]: the IC50 was determined as 230 nM.

On to `CCNC(=O)CN1CCN(Cc2cnn(-c3ccc(-c4ccccc4)cc3)c2-c2ccccc2F)CC1` [Example 1018, 2-{4-[1-Biphenyl-4-yl-5-(2-fluoro-phenyl)-1H-pyrazol-4-ylmethyl]piperazin-1-yl}-N-ethyl-acetamide], for which the IC50 is 230 nM.

Turning to `CN1CCC(N(C)Cc2cnn(-c3ccc(-c4ccccc4)cc3)c2-c2ccccc2F)CC1` [Example 995, [1-Biphenyl-4-yl-5-(2-fluorophenyl)-1H-pyrazol-4-ylmethyl]methyl-(1-methylpiperidin-4-yl)amine], the IC50 turned out to be 160 nM.

In the case of `CN1CCN(Cc2cnn(-c3ccc(-c4ccc(F)cc4)cc3)c2-c2ccc(Cl)c(Cl)c2)CC1` [Example 1007, 1-[5-(3,4-Dichlorophenyl)-1-(4′-fluoro-biphenyl-4-yl)-1H-pyrazol-4-ylmethyl]-4-methyl-piperazine], the IC50 came out at 190 nM.

Regarding `Cc1cnc(NCc2cnn(-c3ccc(-c4ccccc4)cc3)c2-c2ccccc2F)s1` [Example 1046, [1-Biphenyl-4-yl-5-(2-fluorophenyl)-1H-pyrazol-4-ylmethyl]-(5-methylthiazol-2-yl)amine], the IC50 stood at 370 nM.

The experiment is the same for the next values; noted with them: target not given; description names affinity to 5-HT2A receptors; read-out: IC50.
In the case of `CC(=O)NC1CCN(Cc2cnn(-c3ccc(-c4ccccc4)cc3)c2-c2ccccc2F)C1` (centres unmarked) [(50), N-{1-[1-Biphenyl-4-yl-5-(2-fluorophenyl)-1H-pyrazol-4-ylmethyl]pyrrolidin-3-yl}acetamide], the 50% inhibitory concentration (IC50) stood at 29 nM.

Consider `Fc1ccccc1-c1c(CNC2CN3CCC2CC3)cnn1-c1ccc(-c2ccccc2)cc1` (centres unmarked) [(107), (1-Azabicyclo[2.2.2]oct-3-yl)-[1-biphenyl-4-yl-5-(2-fluorophenyl)-1H-pyrazol-4-ylmethyl]amine], for which the IC50 stood at 140 nM.

Regarding `OCc1cnn(-c2ccc(-c3ccccc3)cc2)c1-c1ccccc1F` [(21), [1-Biphenyl-4-yl-5-(2-fluorophenyl)-1H-pyrazol-4-yl]-methanol], the 50% inhibitory concentration (IC50) stood at 1200 nM.

Consider `CN1CCN(Cc2cnn(-c3ccc(-c4ccc(F)cc4)cc3)c2-c2ccc(F)cc2)CC1` [(100), 1-[1-(4′-Fluorobiphenyl-4-yl)-5-(4-fluorophenyl)-1H-pyrazol-4-ylmethyl]-4-methylpiperazine], for which the IC50 turned out to be 25 nM.

`CN(C)C1CCN(Cc2cnn(-c3ccc(-c4ccccc4)cc3)c2-c2ccccc2F)CC1` [(37), {1-[1-Biphenyl-4-yl-5-(2-fluorophenyl)-1H-pyrazol-4-ylmethyl]-piperidin-4-yl}dimethylamine]: the IC50 turned out to be 200 nM.

Take `CN(C)C(=O)CNCc1cnn(-c2ccc(-c3ccccc3)cc2)c1-c1ccccc1F` [(128), 2-{[1-Biphenyl-4-yl-5-(2-fluorophenyl)-1H-pyrazol-4-ylmethyl]-amino}-N,N-dimethylacetamide]: the IC50 is 200 nM.

As for `CN1CCN(Cc2cnn(-c3ccc(-c4ccccc4F)cc3)c2-c2ccc(F)cc2)CC1` [(99), 1-[1-(2′-Fluorobiphenyl-4-yl)-5-(4-fluorophenyl)-1H-pyrazol-4-ylmethyl]-4-methylpiperazine], the IC50 worked out at 210 nM.

Turning to `CN(C)C1CCN(Cc2cnn(-c3ccc(-c4ccccc4)cc3)c2-c2ccccc2F)C1` (centres unmarked) [(167), {1-[1-Biphenyl-4-yl-5-(2-fluorophenyl)-1H-pyrazol-4-ylmethyl]-pyrrolidin-3-yl}dimethylamine], the IC50 was found to be 230 nM.

On to `CN1CCN(Cc2cnn(-c3ccc(OC(F)(F)F)cc3)c2-c2ccccc2F)CC1` [(115), 1-[5-(2-Fluorophenyl)-1-(4-trifluoromethoxyphenyl)-1H-pyrazol-4-ylmethyl]-4-methylpiperazine], for which the IC50 is 270 nM.

Consider `CN1CCN(Cc2cnn(-c3ccc(-c4cccnc4)cc3)c2-c2ccccc2F)CC1` [(120), 1-[5-(2-Fluorophenyl)-1-(4-pyridin-3-ylphenyl)-1H-pyrazol-4-ylmethyl]-4-methylpiperazine], for which the IC50 is 170 nM.

For the compound `Fc1ccccc1-c1cc(CN2CCOCC2)nn1-c1ccc(-c2ccccc2)cc1` [(44), 4-[1-Biphenyl-4-yl-5-(2-fluorophenyl)-1H-pyrazol-3-ylmethyl]-morpholine], the IC50 was 1100 nM.

As for `O=C1NOCC1NCc1cnn(-c2ccc(-c3ccccc3)cc2)c1-c1ccccc1F` (centres unmarked) [(131), 4-{[1-Biphenyl-4-yl-5-(2-fluorophenyl)-1H-pyrazol-4-ylmethyl]-amino}isoxazolidin-3-one], the IC50 was found to be 6000 nM.

For `CN1CCN(CC(O)CC(O)c2cnn(-c3ccc(-c4ccccc4)cc3)c2-c2ccccc2F)CC1` (centres unmarked) [(149), 1-[1-Biphenyl-4-yl-5-(2-fluorophenyl)-1H-pyrazol-4-yl]-4-(4-methylpiperazin-1-yl)butane-1,3-diol], the IC50 is 620 nM.

`NCCc1cnn(-c2ccc(-c3ccccc3)cc2)c1-c1ccccc1F` [(188), 2-[1-Biphenyl-4-yl-5-(2-fluorophenyl)-1H-pyrazol-4-yl]-ethylamine]: the IC50 worked out at 1400 nM.

Regarding `Fc1ccccc1-c1c(CN2CC3CC2CO3)cnn1-c1ccc(-c2ccccc2)cc1` (centres unmarked) [(82), 5-[1-Biphenyl-4-yl-5-(2-fluorophenyl)-1H-pyrazol-4-ylmethyl]-2-oxa-5-azabicyclo[2.2.1]heptane], the 50% inhibitory concentration (IC50) was 160 nM.

Consider `CN1CCN(Cc2cnn(-c3ccc(-c4ccsc4)cc3)c2-c2ccccc2)CC1` [(98), 1-Methyl-4-[5-phenyl-1-(4-thiophen-3-ylphenyl)-1H-pyrazol-4-ylmethyl]piperazine], for which the IC50 came to 31 nM.

Take `CCOC(=O)N1CCN(Cc2cnn(-c3ccc(-c4ccccc4)cc3)c2-c2ccccc2F)CC1` [(182), Ethyl 4-[1-biphenyl-4-yl-5-(2-fluorophenyl)-1H-pyrazol-4-ylmethyl]piperazine-1-carboxylate]: the IC50 amounted to 58 nM.

In the case of `O=C(c1cnn(-c2ccc(-c3ccccc3)cc2)c1-c1ccccc1F)N1CCOCC1` [(193), 1-[1-Biphenyl-4-yl-5-(2-fluorophenyl)-1H-pyrazol-4-yl]-1-morpholin-4-ylmethanone], the IC50 came out at 360 nM.

On to `Cn1cccc1CNCc1cnn(-c2ccc(-c3ccccc3)cc2)c1-c1ccccc1` [(171), (1-Biphenyl-4-yl-5-phenyl-1H-pyrazol-4-ylmethyl)-(1-methyl-1H-pyrrol-2-ylmethyl)amine], for which the IC50 is 26 nM.

Take `COCCNCc1cnn(-c2ccc(-c3ccccc3)cc2)c1-c1ccccc1F` [(78), [1-Biphenyl-4-yl-5-(2-fluorophenyl)-1H-pyrazol-4-ylmethyl]-(2-methoxyethyl)amine]: the IC50 was 16 nM.

On to `Fc1ccccc1-c1c(CN2CCCC2)cnn1-c1ccc(-c2ccccc2)cc1` [(35), 1-Biphenyl-4-yl-5-(2-fluorophenyl)-4-pyrrolidin-1-ylmethyl-1H-pyrazole], for which the IC50 stood at 32 nM.

For `CN1CCN(Cc2cnn(-c3ccc(-c4ccccc4F)cc3)c2-c2ccccc2)CC1` [(96), 1-[1-(2′-Fluorobiphenyl-4-yl)-5-phenyl-1H-pyrazol-4-ylmethyl]-4-methylpiperazine], the IC50 was found to be 820 nM.

For the compound `COc1ccccc1-c1c(CN2CCN(C)CC2)cnn1-c1ccc(-c2ccsc2)cc1` [(105), 1-[5-(2-Methoxyphenyl)-1-(4-thiophen-3-ylphenyl)-1H-pyrazol-4-ylmethyl]-4-methylpiperazine], the IC50 turned out to be 460 nM.

For the compound `Fc1ccc(-c2ccc(-n3ncc(CNc4ccon4)c3-c3ccccc3F)cn2)cc1` [(174), {5-(2-Fluorophenyl)-1-[6-(4-fluorophenyl)pyridin-3-yl]-1H-pyrazol-4-ylmethyl}isoxazol-3-ylamine], the IC50 was 320 nM.

Take `CCOC(=O)N1CCC(NCc2cnn(-c3ccc(-c4ccccc4)cc3)c2-c2ccccc2F)CC1` [(72), Ethyl 4-{[1-biphenyl-4-yl-5-(2-fluorophenyl)-1H-pyrazol-4-ylmethyl]amino}piperidine-1-carboxylate]: the IC50 was 580 nM.

On to `Fc1ccccc1-c1c(CNCCCn2ccnc2)cnn1-c1ccc(-c2ccccc2)cc1` [(152), [1-Biphenyl-4-yl-5-(2-fluorophenyl)-1H-pyrazol-4-ylmethyl]-(3-imidazol-1-ylpropyl)amine], for which the IC50 was 130 nM.

On to `CN1CCN(Cc2cnn(-c3ccc(-c4ccccc4)cc3)c2C(F)(F)F)CC1` [(67)], for which the half-maximal inhibitory concentration (IC50) worked out at 260 nM.

Turning to `CN1CCN(Cc2cnn(-c3ccc(-c4cc(F)ccc4F)cc3)c2-c2ccco2)CC1` [(69), 1-[1-(2′,5′-Difluorobiphenyl-4-yl)-5-furan-2-yl-1H-pyrazol-4-ylmethyl]-4-methylpiperazine], the IC50 came out at 36 nM.
